Assay results: patent publication US20030157715A1, “Modulation of chromosome function by chromatin remodeling agents” (priority 2000, published 2003)
pKd: −log10 of the molar value.

Experiments:
[1] = molecular target: W9 probe (tandem repeats of an oligonucleotide with a 9 bp AT-tract); assay: DNase I footprinting on probe W9; type: binding; conditions: apparent binding affinity, DNase I footprinting, probe W9; read-out: Kdapp W9
Text: DNase I cleavage pattern in the presence of P9 and P7. Ligand concentrations are indicated at the top of each lane. The position of each of the AT-tracts is indicated by square brackets. […] This probe is composed of head-to-tail tandem repeats of an oligonucleotide with a 9 bp AT-tract.
(§1) Synthetic oligonucleotides […] and […] were hybridized to obtain the W9 probe, oligomerized by ligation and digested with BamHI and BglII to obtain different tandem repeats. The following oligonucleotides were prepared identically: GAF31 is composed of the oligonucleotides […] and […] and, BrownI of oligonucleotides […] and […]. Fragments were purified on low-melt agarose gels and then cloned into a modified pSP64 vector, cut by BamHI and BglII. End-labeling was carried out following digestion with HindIII and a fill-in reaction with Klenow DNA polymerase. The labeled plasmid was cut with PvuII and the target fragments purified from low-melting agarose gels. The 657 bp EcoR1/Hinf1 fragment of the Drosophila histone SAR was cloned into the SmaI site of the modified pSP64 plasmid. This SAR probe was end-labeled following-digestion with EcoR1, then cut with ClaI and the resulting 347 bp fragment purified from low-melting agarose gels.
(§2) All reactions were performed in a total volume of 40 μl. A polyamide stock solution or buffer (for reference lanes) was added to an assay buffer containing 20 kcpm radiolabeled DNA, affording final concentrations of 10 mM Tris-HCl (pH 7.4), 10 mM KCl, 10 MM MgCl, 5 mM CaCl2, 0.5 mM EDTA, 0.5 mM EGTA, 1 mM DTT and 0.1% digitonine. The solutions were allowed to equilibrate for at least 2 h at room temperature. Footprinting reactions were initiated by the addition of 2 μl of a DNase stock solution (containing −100 μg DNase I in buffer) and allowed to proceed for 2 min at room temperature. The reactions were stopped by addition of 10 μl of a solution containing 1.25 M NaCl, 100 mM EDTA. Next, 5 μl of a 1% SDS solution was added, followed by 2 μl of a solution containing 1 μg poly(dA-dT), 1 μg salmon sperm DNA and 10 μg glycogen and the DNA was ethanol precipitated (20 min at −20 C.). The reactions were resuspended in 4 μl of 80% formamide loading buffer, denatured 10 min at 85 C., cooled on ice and electrophoresed on 8% polyacrylamide denaturing gels (5% cross-link, 8 M urea) at 30 W for 1 h. The gels were dried and exposed o/n at −70 C.

Drosophila histone SAR = assay: DNase I footprinting on SAR probe; type: binding; conditions: for Ratio: Kdapp W9 / Kdapp SAR (SAR specificity factor); for pKd: apparent binding affinity, DNase I footprinting, SAR probe, read-out: Kdapp SAR
Protocol: as §1, §2

[2] = test system: satellite III chromatin in Kc nuclei; conditions: previously reported (Kas and Laemmli, 1992); cited from earlier work
[3] = test system: DNA satellites in Kc nuclei and polytene chromosomes; assay: Staining of Kc nuclei and polytene chromosomes with fluorescent polyamides; design: species or system Drosophila; conditions: isolated Kc nuclei and polytene chromosomes
Protocol: Kc Drosophila nuclei were isolated (Mirkovitch et al., 1984), diluted into XBE (10 mM Hepes, pH 7.7, 2 mM MgCl2, 0.1 mM CaCl2, 100 mM KCl, 5 mM EGTA and 50 mM sucrose), fixed with 0.8% fresh paraformaldehyde for 15 minutes and spun onto a round coverslip (10 mm) as described previously (Boy de la Tour and Laemmli, 1988). For washing and staining, coverslips were floated on 60 μl drops of XBE deposited on […]. After centrifugation coverslips were washed twice (1 minute), stained for 60 minutes, washed four times (1 minute) and then mounted in PPDI (5 mM Hepes pH 7.8, 100 mM NaCl, 20 mM KCl, 1 mM EGTA, 10 mM Mg SO4, 2 mM CaCl2, 78% glycerol, 1 mgr/ml paraphenylene diamine). FIG. (4) panel A was stained with 0.5 μM […] and 15 μM ethidium bromide (EB). Kc nuclei and polytene chromosomes were stained with fluorescent polyamides as described elsewhere (Janssen et al., 2000). For immunofluorescence, polytene glands were carefully dissected from bw^D or Canton S. flies in 1× PBS as described (Ashburner, 1989) Whole glands in sol P (1×PBS supplemented with 1 mM MgCl2 and 0.1% digitonin) were then incubated for 60 minutes with various concentrations of either P31, P9 or no compound at room temperature. P31 (not P9) induced redistribution of GAF during this incubation step. […] Images were recorded with a wide field, deconvolution-type imaging system from DeltaVision.

CN(C)CCCNC(=O)CCNC(=O)c1cc(NC(=O)c2cc(NC(=O)c3cc(NC(=O)c4cc(NC(=O)c5cccn5C)cn4C)cn3C)cn2C)cn1C [Compound P10, (Py)5βDp]
pKd [1]: 7.10
Ratio (Drosophila histone SAR): 2.3
pKd (Drosophila histone SAR): 7.46

CN(C)CCCNC(=O)CCNC(=O)c1cc(NC(=O)c2cc(NC(=O)c3cc(NC(=O)CCNC(=O)c4cc(NC(=O)c5cc(NC(=O)c6cc(NC(=O)CCNC(=O)c7cc(NC(=O)c8cc(NC(=O)c9cccn9C)cn8C)cn7C)cn6C)cn5C)cn4C)cn3C)cn2C)cn1C [Compound P13, ((Py)3β)3Dp]
pKd [1]: 9.00
Ratio (Drosophila histone SAR): 0.8
pKd (Drosophila histone SAR): 8.90

Cn1cc(NC(=O)c2cc(NC(=O)c3cc(NC=O)cn3C)cn2C)cc1C(=O)NCCC(=N)N [distamycin]
chromatin opening at satellite III by distamycin [2]: causes opening of the chromatin fiber

(Py)3β(Py)3βD* [Compound P9F]
pKd [1]: 8.40
Ratio (Drosophila histone SAR): 4
pKd (Drosophila histone SAR): 9.00
increase of SAR specificity upon fluorescein tagging (Drosophila histone SAR; tagged versus untagged compound): about 4 fold
main nuclear targets by epifluorescence staining [3]: targets primarily satellite I and III

F*γ(Py)5βDp [Compound P10F]
pKd [1]: 5.52
Ratio (Drosophila histone SAR): 2.5
pKd (Drosophila histone SAR): 5.92
